Where a SMILES comes first, the peptide text is derived from it. Bridges are numbered along the chain shown (N, C = ends). [ ]: non-standard residue; d: D form. hArg = N=C(N)NCCCC[C@H](N)C(=O)O; Mpa = O=C(O)CCS
Key:
[1] = test system: platelets in platelet rich plasma (PRP); assay: Microplate clot retraction method (thrombin-activated platelet rich plasma, O.D. 350 nm kinetics); format: cell-based, human; conditions: for clot densification phase (phase 3) of the reaction kinetic curve: at the highest levels of inhibition
Experimental: Whole blood was collected in acid citrate dextrose tubes (ACD-A; BD Vacutainer, Franklin Lakes NJ) from healthy volunteers in accordance with a U.S. Army Research and Development Command approved protocol (USAISR L-20-003). Whole blood was centrifuged at 200×g for 10 minutes and platelet rich plasma (PRP) was obtained from the upper layer. Platelet poor plasma (PPP) was recovered from the remaining volume of the ACD-A tube after centrifugation at 3,000 times gravity (×g) for 10 minutes. To obtain apheresis platelets, the Trima Accel 7 (Terumo, Lakewood, CO) system was used for collection in either autologous plasma or Isoplate (65% Isoplate, 35% plasma). Platelet concentrations were determined on an Advia® 2120i (Siemens, Malvern, PA) and adjusted to 250,000 platelets/μL with autologous PPP, unless indicated otherwise.
Individual wells of a 96-well polystyrene microplate were coated with 150 μL of anti-adherence rinse solution (Stem Cell Technologies, Vancouver, Canada) and the microplate was centrifuged for 10 minutes at 1.300×g. The anti-adherence coating solution was aspirated and the coated wells were washed once with phosphate buffered saline. After washing, one side of each coated well was scored with an 18 Gauge (Ga) needle. Five μL of 30 U/ml thrombin (Haematologic Technologies, East Junction, VT) were added to each coated and scored well to initiate platelet aggregation, clot formation, and subsequent clot retraction.
PRP was supplemented with 6 mM CaCl2 (Sigma, St. Louis, MO) before aliquoting 180 μL to wells that were adjacent to the thrombin-containing (reaction) wells. The transfer of PRP to adjacent (staging) wells allowed for simultaneous transfer of multiple samples to the reaction wells using a multichannel pipette. The microplate was then loaded into a Synergy™ Neo2 microplate reader, and 145 μL of re-calcified PRP were transferred from the staging well to the reaction well. The plate scan was immediately started after addition of PRP. The plate scan protocol consisted of: temperature=37° C., assay duration=30 minutes, read interval=5 seconds, kinetic absorbance wavelength=350 nm, well scan absorbance wavelength=350 nm. After the plate scan protocol was completed, the plate was discarded and the data were exported as text files.
When indicated, the concentrations of platelets, CaCl2, or thrombin were varied to identify the optimal assay conditions for clot retraction. Additionally, PRP was pre-treated with increasing concentrations of inhibitors to platelet integrin αIIbβ3 (Eptifibatide, Sigma, St. Louis, MO), platelet-fibrin interaction (RGDS, Cayman Chemical, Ann Arbor, MI), and Src-family kinase (PP2, Sigma). Vehicle controls were the solvent used for the respective compound. Each treatment was performed in at least duplicate technical replicates.
Text files containing the optical density (O.D.) values were imported into R v4.0.5. Parameters of Rate of Clot Formation, Rate of Clot Retraction, Maximum O.D., Retraction Coefficient, Time to Maximum O.D., and Retraction Time were derived for each sample. Algorithms to extract parameters are described in Table 2, below.
Briefly, for Rates of Clot Formation and Retraction, a sliding window procedure was used to fit a linear model to a subset of 20 consecutive data points (k=20). The slope coefficient was extracted from each linear model and stored in an array. The Rates of Clot Formation and Retraction were defined as the maximum and minimum values, respectively, in the array. […] The data points represent donors and horizontal bars depicts medians. The Maximum and Minimum O.D. values were defined as the maximum and minimum readings, respectively. The Retraction Coefficient was defined as the difference between the Maximum and Minimum O.D. values, divided by the Maximum O.D. value. The Time to Maximum O.D. was defined as the time-point in which the Maximum O.D. value was observed. […]

[2] = test system: platelet rich plasma (PRP); assay: Clot retraction assay in 2% Tween coated wells (optimization of assay agonist); format: cell-based, human; conditions: 0.5, 1, 2 and 4 NIH units of thrombin, n=4
Experimental: Bottom halves of the individual wells in a 96-well plate were coated with 2% Tween and left in a vertical position inside a modified chamber for 90 minutes at room temperature. The coating solutions were then aspirated and allowed to air dry under the hood for 15 minutes. Whole blood collected in ACD tubes from healthy volunteers was subjected to centrifugation at 200×g for 10 minutes to obtain platelet rich plasma (PRP), followed by a second centrifugation at 3000×g for 10 minutes to obtain platelet poor plasma (PPP). When needed, platelet concentrations in the PRP were adjusted to desired levels using PPP. PRP samples (145 μL) were recalcified with 20 mM CaCl2 were then transferred into wells containing five μL of two NIH U/mLs of Thrombin. Further, the changes in absorbance during clot gelation and retraction were tracked at 350 nm using a microplate spectrophotometer for 90 minutes at 37° C.
To evaluate the appropriate thrombin concentration for the best outcome in the assay, we tested at 0.5, 1, 2 and 4 NIH units of thrombin (n=4). Once coagulation was initiated with thrombin, the clotting kinetics were characterized by a very short lag phase of initiation, a log phase of fibrin polymerization, a fibrin densification phase of platelet mediated fibrin remodeling, and a final rapid CR phase of declining absorbance. […]

[Ca+2].[Cl-].[Cl-] [CaCl2, Calcium chloride]
clot formation and clot retraction at the highest CaCl2 levels ([1]; CaCl2 concentration varied, n=5, highest levels): clot formation, but failure in clot retraction | differences in parameters across CaCl2 concentrations ([1]; range of 0 to 6 mM CaCl2): No differences

C=C1[C@@H](C)[C@H]2[C@H](Cc3ccccc3)NC(=O)[C@]23[C@H](OC(C)=O)/C=C/[C@@](C)(O)C(=O)[C@@H](C)C/C=C/[C@H]3[C@@H]1O [cytochalasin D]
all parameters except Rate of Clot Formation and Maximum O.D., differences among treatment levels ([1]; cytochalasin D pretreatment, n=5, p<0.001): significant differences | dose dependence of the differences among conditions ([1]; cytochalasin D pretreatment, greatest departure from vehicle at highest concentrations): followed the dosing level

N=C(N)NCCCC[C@@H]1NC(=O)CCSSC[C@@H](C(N)=O)NC(=O)[C@@H]2CCCN2C(=O)[C@H](Cc2c[nH]c3ccccc23)NC(=O)[C@H](CC(=O)O)NC(=O)CNC1=O [Eptifibatide] ([Mpa][hArg]GDWPC-NH2; disulfide 1-7)
clot densification phase (phase 3) of the reaction kinetic curve [1]: absent or greatly diminished

thrombin
effect of thrombin concentration on the method's results ([1]; thrombin concentration varied, n=5): significantly affected the method's results in a concentration dependent manner | CR at 60 minutes after clot initiation [2]: 100%

Arg-Gly-Asp-Ser (RGDS; printed: Arg-Gly-Asp-Ser)
clot densification phase (phase 3) of the reaction kinetic curve [1]: absent or greatly diminished

CC(C)(C)n1nc(-c2ccc(Cl)cc2)c2c(N)ncnc21 [PP2]
clot densification phase (phase 3) of the reaction kinetic curve [1]: absent or greatly diminished

Source: patent publication US20230358769A1, “CLOT […] FOR QUALITY MONITORING OF PLATELET PRODUCTS” (THE GOVERNMENT OF THE UNITED STATES AS REPRESENTED BY THE …, priority 2022, published 2023)
